In brackets after ≈: the same amount, converted by molar mass.
What was measured:
[1] = test system: Staphylococcus epidermidis; experiment: Antimicrobial activity against Staphylococcus epidermidis ATCC 35984 incubated for 18 hrs by twofold microdilution method; format: functional
Staphylococcus aureus [2] = experiment: Antimicrobial activity against Staphylococcus aureus NCTC 4163 incubated for 18 hrs by twofold microdilution method; format: functional
Staphylococcus aureus [3] = experiment: Antimicrobial activity against Staphylococcus aureus ATCC 25923 incubated for 18 hrs by twofold microdilution method; format: functional
Escherichia coli = experiment: Antimicrobial activity against Escherichia coli ATCC 25922 incubated for 18 hrs by twofold microdilution method; format: functional
Pseudomonas aeruginosa = experiment: Antimicrobial activity against Pseudomonas aeruginosa ATCC 15442 incubated for 18 hrs by twofold microdilution method; format: functional
[4] = Selectivity index, ratio of IC50 for cytotoxicity against human HaCaT cells to IC50 for cytotoxicity against human SW480 cells; format: toxicity, cell-based; conditions: HaCaT cells versus SW480 cells, read-out: Ratio IC50
[5] = Selectivity index, ratio of IC50 for cytotoxicity against chinese hamster V79 cells to IC50 for cytotoxicity against human PC-3 cells; format: toxicity, cell-based; conditions: V79 cells versus PC-3 cells, read-out: Ratio IC50
A549 = experiment: Cytotoxicity against human A549 cells incubated for 72 hrs by MTT assay; format: functional, cell-based; conditions: A549, 72 h
SW-620 = experiment: Cytotoxicity against human SW620 cells incubated for 72 hrs by MTT assay; format: functional, cell-based; conditions: SW-620, 72 h
[6] = Cytotoxicity against human HaCaT cells incubated for 72 hrs by MTT assay; format: toxicity, cell-based
[7] = Selectivity index, ratio of IC50 for cytotoxicity against human HaCaT cells to IC50 for cytotoxicity against human PC-3 cells; format: toxicity, cell-based; conditions: HaCaT cells versus PC-3 cells, read-out: Ratio IC50
[8] = Selectivity index, ratio of IC50 for cytotoxicity against human HaCaT cells to IC50 for cytotoxicity against human SW620 cells; format: toxicity, cell-based; conditions: HaCaT cells versus SW620 cells, read-out: Ratio IC50
[9] = Cytotoxicity against chinese hamster V79 cells incubated for 72 hrs by MTT assay; format: toxicity, cell-based, Cricetulus griseus
[10] = test system: Staphylococcus epidermidis; experiment: Antimicrobial activity against Staphylococcus epidermidis ATCC 12228 incubated for 18 hrs by twofold microdilution method; format: functional
[11] = Selectivity index, ratio of IC50 for cytotoxicity against human HaCaT cells to IC50 for cytotoxicity against human A549 cells; format: toxicity, cell-based; conditions: HaCaT cells versus A549 cells, read-out: Ratio IC50
MDA-MB-231 = experiment: Cytotoxicity against human MDA-MB-231 cells incubated for 72 hrs by MTT assay; format: functional, cell-based; conditions: MDA-MB-231, 72 h
Staphylococcus aureus [12] = experiment: Antimicrobial activity against Staphylococcus aureus ATCC 29213 incubated for 18 hrs by twofold microdilution method; format: functional
PC-3 = experiment: Cytotoxicity against human PC-3 cells incubated for 72 hrs by MTT assay; format: functional, cell-based; conditions: PC-3, 72 h
[13] = Selectivity index, ratio of IC50 for cytotoxicity against chinese hamster V79 cells to IC50 for cytotoxicity against human MDA-MB-231 cells; format: toxicity, cell-based; conditions: V79 cells versus MDA-MB-231 cells, read-out: Ratio IC50
[14] = Selectivity index, ratio of IC50 for cytotoxicity against human HaCaT cells to IC50 for cytotoxicity against human MDA-MB-231 cells; format: toxicity, cell-based; conditions: HaCaT cells versus MDA-MB-231 cells, read-out: Ratio IC50
Staphylococcus aureus [15] = experiment: Antimicrobial activity against Staphylococcus aureus ATCC 6538 incubated for 18 hrs by twofold microdilution method; format: functional
[16] = Selectivity index, ratio of IC50 for cytotoxicity against chinese hamster V79 cells to IC50 for cytotoxicity against human SW480 cells; format: toxicity, cell-based; conditions: V79 cells versus SW480 cells, read-out: Ratio IC50
[17] = Selectivity index, ratio of IC50 for cytotoxicity against chinese hamster V79 cells to IC50 for cytotoxicity against human A549 cells; format: toxicity, cell-based; conditions: V79 cells versus A549 cells, read-out: Ratio IC50
SW480 = experiment: Cytotoxicity against human SW480 cells incubated for 72 hrs by MTT assay; format: functional, cell-based; conditions: SW480, 72 h
[18] = Selectivity index, ratio of IC50 for cytotoxicity against chinese hamster V79 cells to IC50 for cytotoxicity against human SW620 cells; format: toxicity, cell-based; conditions: V79 cells versus SW620 cells, read-out: Ratio IC50

Compound | MIC [1] | MIC (Staphylococcus aureus [2]) | MIC (Staphylococcus aureus [3]) | MIC (Escherichia coli) | MIC (Pseudomonas aeruginosa) | selectivity ratio [4] | selectivity ratio [5] | IC50 (A549) | IC50 (SW-620) | IC50 at 72 h [6] | selectivity ratio [7] | selectivity ratio [8] | IC50 at 72 h [9] | MIC [10] | selectivity ratio [11] | IC50 (MDA-MB-231) | MIC (Staphylococcus aureus [12]) | IC50 (PC-3) | selectivity ratio [13] | selectivity ratio [14] | further results
CC[C@@H](C(=O)[C@@H](C)[C@@H](O)[C@H](C)[C@@H]1O[C@@H]([C@@H](CC)C(=O)OCCCCCC[P+](c2ccc(OC)cc2)(c2ccc(OC)cc2)c2ccc(OC)cc2)CC[C@@H]1C)[C@H]1O[C@]2(C=C[C@@H](O)[C@]3(CC[C@@](C)([C@H]4CC[C@](O)(CC)[C@H](C)O4)O3)O2)[C@H](C)C[C@@H]1C.[Br-] | 8 µg/mL | 4 µg/mL | 8 µg/mL | > 256 µg/mL | > 256 µg/mL | 1.2 | 0.4 | 920 nM | 810 nM | 630 nM | 0.5 | 0.8 | 600 nM | 8 µg/mL | 0.7 | 600 nM | 8 µg/mL | 1400 nM | 1 | 1.1 | MIC (Staphylococcus aureus [15]): 4 µg/mL; selectivity ratio [16]: 1.1; selectivity ratio [17]: 0.7; IC50 (SW480): 530 nM; selectivity ratio [18]: 0.7
O=C(O)c1cn(C2CC2)c2cc(N3CCNCC3)c(F)cc2c1=O [CIPROFLOXACIN] | 0.125 µg/mL (≈ 0.377 µM) |  | 0.25 µg/mL (≈ 0.754 µM) | 0.007 µg/mL (≈ 0.0211 µM) |  |  |  |  |  |  |  |  |  | 0.125 µg/mL (≈ 0.377 µM) |  |  | 0.25 µg/mL (≈ 0.754 µM) |  |  |  | 
CC[C@@H](C(=O)[C@@H](C)[C@@H](O)[C@H](C)[C@@H]1O[C@@H]([C@@H](CC)C(=O)OCCCC[P+](c2ccc(OC)cc2)(c2ccc(OC)cc2)c2ccc(OC)cc2)CC[C@@H]1C)[C@H]1O[C@]2(C=C[C@@H](O)[C@]3(CC[C@@](C)([C@H]4CC[C@](O)(CC)[C@H](C)O4)O3)O2)[C@H](C)C[C@@H]1C.[Br-] | 8 µg/mL | 4 µg/mL | 4 µg/mL | > 256 µg/mL | > 256 µg/mL | 1.5 | 0.3 | 660 nM | 1280 nM | 1120 nM | 0.5 | 0.9 | 670 nM | 16 µg/mL | 1.7 | 1420 nM | 64 µg/mL | 2240 nM | 0.5 | 0.8 | MIC (Staphylococcus aureus [15]): 4 µg/mL; selectivity ratio [16]: 0.9; selectivity ratio [17]: 1; IC50 (SW480): 730 nM; selectivity ratio [18]: 0.5
CC[C@@H](C(=O)[C@@H](C)[C@@H](O)[C@H](C)[C@@H]1O[C@@H]([C@@H](CC)C(=O)OCCCCCC[P+](c2ccccc2)(c2ccccc2)c2ccc(N(C)C)cc2)CC[C@@H]1C)[C@H]1O[C@]2(C=C[C@@H](O)[C@]3(CC[C@@](C)([C@H]4CC[C@](O)(CC)[C@H](C)O4)O3)O2)[C@H](C)C[C@@H]1C.[Br-] | 8 µg/mL | 8 µg/mL | 8 µg/mL | > 256 µg/mL | > 256 µg/mL | 1.2 | 0.4 | 850 nM | 710 nM | 710 nM | 0.5 | 1 | 600 nM | 8 µg/mL | 0.8 | 880 nM | 8 µg/mL | 1470 nM | 0.7 | 0.8 | MIC (Staphylococcus aureus [15]): 8 µg/mL; selectivity ratio [16]: 1; selectivity ratio [17]: 0.7; IC50 (SW480): 580 nM; selectivity ratio [18]: 0.8
CCCC[P+](CCCC)(CCCC)CCCCCCOC(=O)[C@H](CC)[C@H]1CC[C@H](C)[C@H]([C@@H](C)[C@H](O)[C@H](C)C(=O)[C@H](CC)[C@H]2O[C@]3(C=C[C@@H](O)[C@]4(CC[C@@](C)([C@H]5CC[C@](O)(CC)[C@H](C)O5)O4)O3)[C@H](C)C[C@@H]2C)O1.[Br-] | 2 µg/mL | 2 µg/mL | 2 µg/mL | > 256 µg/mL | > 256 µg/mL | 1.2 | 0.2 | 1050 nM | 670 nM | 620 nM | 0.2 | 0.9 | 650 nM | 2 µg/mL | 0.6 | 1020 nM | 2 µg/mL | 2890 nM | 0.6 | 0.6 | MIC (Staphylococcus aureus [15]): 2 µg/mL; selectivity ratio [16]: 1.3; selectivity ratio [17]: 0.6; IC50 (SW480): 500 nM; selectivity ratio [18]: 1
COc1cccc2c1C(=O)c1c(O)c3c(c(O)c1C2=O)C[C@@](O)(C(=O)CO)C[C@@H]3O[C@H]1C[C@H](N)[C@H](O)[C@H](C)O1 [DOXORUBICIN] |  |  |  |  |  |  |  | 630 nM |  |  |  |  | 2010 nM |  |  | 830 nM |  |  |  |  | 
CC[C@@H](C(=O)[C@@H](C)[C@@H](O)[C@H](C)[C@@H]1O[C@@H]([C@@H](CC)C(=O)OCCCC[P+](c2ccccc2OC)(c2ccccc2OC)c2ccccc2OC)CC[C@@H]1C)[C@H]1O[C@]2(C=C[C@@H](O)[C@]3(CC[C@@](C)([C@H]4CC[C@](O)(CC)[C@H](C)O4)O3)O2)[C@H](C)C[C@@H]1C.[Br-] | 2 µg/mL | 2 µg/mL | 2 µg/mL | 256 µg/mL | 256 µg/mL | 1.7 | 0.7 | 700 nM | 1250 nM | 940 nM | 1.1 | 0.8 | 640 nM | 2 µg/mL | 1.3 | 740 nM | 2 µg/mL | 880 nM | 0.9 | 1.3 | MIC (Staphylococcus aureus [15]): 2 µg/mL; selectivity ratio [16]: 1.1; selectivity ratio [17]: 0.9; IC50 (SW480): 560 nM; selectivity ratio [18]: 0.5
